Experimental data from patent US9944634B2, “Pyrazolopyridine derivatives as TTX-S blockers” (RaQualia Pharma Inc., priority 2012, dated 2018).
pIC50, pKi: −log10 of the molar value. Where two headings read alike, the source gives them in different places.

Experiments:
Type in all cases: cell-based
human Nav1.5 channels = target: T1, human Nav1.5 channels (Homo sapiens, UniProt Q14524); experiment: FRET assay, human Nav1.5 channels; details: read-out: activity against Nav1.5 (IC50)
T1 construct: expressed in transfected cells; host or cells: HEK293 cells
Protocol: (§1) The inhibitory activities of compounds against voltage gated sodium channels are determined by methodology well known in the art.
(§2) The ability of the pyrazolopyridine derivatives of the formula (I) to inhibit the Nav1.3, Nav1.7 and Nav1.5 channels is measured by Fluorescence Resonance Energy Transfer (FRET) assay and electrophysiology assay described below.
(§3) This screen is used to determine the effects of compounds on human Nav1.3, human Nav1.7, and human Nav1.5 channels, utilising electrical field stimulation (EFS) system in 96-well plate format on FDSS (Hamamatsu Photonics) platform. The change of membrane potential is monitored with FRET dye pair, oxonol (DiSBAC2(3)) and coumarin (CC2-DMPE).
Each HEK293 cells expressing human Nav1.3 channels and HEK293 cells expressing human Nav1.5 channels are grown in T225 flasks, in a 5% CO2 humidified incubator to about 80% confluence. Media composition consists of Dulbecco's Modified Eagle Medium (high glucose), 10% FCS, 100 units/mL penicillin, 100 microgram/mL streptomycin and 500 microgram/mL Geneticine. […]
(§4) The data are analyzed and reported as normalized ratios of intensities measured at […]. […]
(§5) This analysis is performed using a computerized specific program designed for FDSS generated data. Fluorescence ratio values are plotted using XLfit to determine an IC50 value for each compound.

human Nav1.7 (hSCN9A) = target: T2, human Nav1.7 (hSCN9A) (Homo sapiens, UniProt Q15858); experiment: Electrophysiology assay (whole cell patch clamp), human Nav1.7; details: dissociation constant for the inactivated state, CHO cells, read-out: activity (Ki) against Nav1.7
T2 construct: expressed in transfected cells; host or cells: CHO cells
Protocol: (§6) Electrophysiology Assay for Nays
(§7) Whole cell patch clamp recording is used to assess the efficacy or selectivity of Na channel blocker on human Nav1.3 (hSCN3A) expressing HEK293 cells or human Nav1.7 (hSCN9A) expressing CHO cells. Human Nav1.3 expressing HEK293 cells are grown in growth media which contain: DMEM, 10% heat-inactivated FBS (Hyclone Laboratories Inc), 100 microgram/mL penicillin/100U/mL streptomycin, 150 microgram/mL Zeocin, and 3 microgram/mL Geneticin. Human Nav1.7 expressing CHO cells are grown in growth media which contain: HAMF-12, 9% heat-inactivated FBS (Hyclone Laboratories Inc), and 100 microgram/mL penicillin/100 U/mL streptomycin, and 100 microgram/mL hygromycin. […]
(§8) The normalized steady-state inactivation curve is constructed using 2 sec (for vehicle) or 60 sec (for drugs) conditioning pulse to different potentials followed immediately by the test pulse to −10 mV. […] The affinity of drugs to resting state of Na channels (Kresting or Kr) is assessed by 30 msec test pulse from a negative holding potential of -120 or −130 mV, where virtually all channels are in the resting state. Kr value is calculated by a conventional 1:1 binding model: Kresting(Kr)={[drug]Imax,drug/(Imax,control−Imax,drug)} [Math.2] • where Kresting(=Kr) is a dissociation constant for the resting state and [drug] is compound concentration. […]

human Nav1.7 channels = target: T3, human Nav1.7 channels (Homo sapiens, UniProt Q15858); experiment: FRET assay, human Nav1.7 channels
T3 construct: expressed in transfected cells; host or cells: CHO cells
Protocol: as §1, §2, §3
CHO cells expressing human Nav1.7 channels are grown in T225 flasks, in a 5% CO2 humidified incubator to about 80% confluence. Media composition consists of HAM/F12 with Glutamax I, 10% FCS, 100 units/mL penicillin and 100 microgram/mL hygromycin. […]
as §4, §5

human Nav1.3 (hSCN3A) = target: T4, human Nav1.3 (hSCN3A) (Homo sapiens, UniProt Q9NY46); experiment: Electrophysiology assay (whole cell patch clamp), human Nav1.3; details: dissociation constant for the inactivated state, HEK293 cells, read-out: activity (Ki) against Nav1.3
T4 construct: expressed in transfected cells; host or cells: HEK293 cells
Protocol: as §6, §7, §8

T3 sequence (Q15858 whole entry): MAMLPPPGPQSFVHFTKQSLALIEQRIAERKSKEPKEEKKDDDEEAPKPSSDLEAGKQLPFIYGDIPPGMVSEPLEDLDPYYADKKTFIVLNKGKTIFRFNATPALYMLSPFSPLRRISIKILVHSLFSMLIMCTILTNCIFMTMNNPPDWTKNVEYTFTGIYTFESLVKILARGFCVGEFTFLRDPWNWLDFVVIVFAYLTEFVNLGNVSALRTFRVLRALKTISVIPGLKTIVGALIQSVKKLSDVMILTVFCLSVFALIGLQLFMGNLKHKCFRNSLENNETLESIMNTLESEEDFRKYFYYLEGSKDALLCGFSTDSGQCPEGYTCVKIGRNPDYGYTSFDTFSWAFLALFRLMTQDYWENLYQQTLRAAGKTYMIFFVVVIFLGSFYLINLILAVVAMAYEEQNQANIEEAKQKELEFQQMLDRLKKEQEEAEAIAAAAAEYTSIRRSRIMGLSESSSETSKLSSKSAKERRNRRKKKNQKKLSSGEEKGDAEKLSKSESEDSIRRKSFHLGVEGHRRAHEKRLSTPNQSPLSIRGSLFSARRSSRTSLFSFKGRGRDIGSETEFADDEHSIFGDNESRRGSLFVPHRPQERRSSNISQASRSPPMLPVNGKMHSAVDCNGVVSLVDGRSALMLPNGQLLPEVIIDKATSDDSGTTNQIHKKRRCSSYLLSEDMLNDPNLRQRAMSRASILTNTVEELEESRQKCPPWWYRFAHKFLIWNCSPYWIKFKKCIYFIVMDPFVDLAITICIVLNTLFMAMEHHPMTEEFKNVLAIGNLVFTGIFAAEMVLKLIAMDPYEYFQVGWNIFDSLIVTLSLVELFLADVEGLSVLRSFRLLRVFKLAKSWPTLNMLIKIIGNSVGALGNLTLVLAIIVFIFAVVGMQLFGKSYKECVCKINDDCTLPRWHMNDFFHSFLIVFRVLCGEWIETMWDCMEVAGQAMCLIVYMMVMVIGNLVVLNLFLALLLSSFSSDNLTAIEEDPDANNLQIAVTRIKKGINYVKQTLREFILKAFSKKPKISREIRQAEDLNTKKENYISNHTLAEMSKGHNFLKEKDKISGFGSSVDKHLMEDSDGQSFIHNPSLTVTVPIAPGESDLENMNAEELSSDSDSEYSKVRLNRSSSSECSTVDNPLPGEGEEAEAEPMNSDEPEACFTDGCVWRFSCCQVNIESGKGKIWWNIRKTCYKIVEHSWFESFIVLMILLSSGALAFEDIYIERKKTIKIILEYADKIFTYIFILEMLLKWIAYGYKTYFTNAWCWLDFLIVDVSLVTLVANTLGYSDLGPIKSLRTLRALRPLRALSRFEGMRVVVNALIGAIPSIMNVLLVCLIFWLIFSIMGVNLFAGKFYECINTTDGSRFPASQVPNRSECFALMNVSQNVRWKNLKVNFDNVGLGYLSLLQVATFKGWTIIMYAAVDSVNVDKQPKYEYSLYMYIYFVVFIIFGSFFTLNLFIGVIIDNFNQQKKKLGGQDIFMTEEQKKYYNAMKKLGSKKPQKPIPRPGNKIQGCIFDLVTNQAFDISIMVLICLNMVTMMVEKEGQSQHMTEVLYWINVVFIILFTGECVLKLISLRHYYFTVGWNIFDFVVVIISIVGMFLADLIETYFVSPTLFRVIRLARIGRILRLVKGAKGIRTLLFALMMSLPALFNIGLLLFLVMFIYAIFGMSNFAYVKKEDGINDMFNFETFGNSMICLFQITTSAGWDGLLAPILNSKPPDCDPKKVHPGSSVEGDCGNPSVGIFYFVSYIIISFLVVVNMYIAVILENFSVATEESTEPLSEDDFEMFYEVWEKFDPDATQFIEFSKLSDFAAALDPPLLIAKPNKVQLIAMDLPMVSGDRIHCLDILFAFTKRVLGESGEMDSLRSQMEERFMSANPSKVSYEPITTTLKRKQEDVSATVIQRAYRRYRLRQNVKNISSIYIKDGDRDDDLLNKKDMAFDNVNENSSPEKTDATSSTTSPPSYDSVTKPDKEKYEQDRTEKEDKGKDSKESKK
T2 sequence (Q15858 whole entry): as above
T1 sequence (Q14524 whole entry): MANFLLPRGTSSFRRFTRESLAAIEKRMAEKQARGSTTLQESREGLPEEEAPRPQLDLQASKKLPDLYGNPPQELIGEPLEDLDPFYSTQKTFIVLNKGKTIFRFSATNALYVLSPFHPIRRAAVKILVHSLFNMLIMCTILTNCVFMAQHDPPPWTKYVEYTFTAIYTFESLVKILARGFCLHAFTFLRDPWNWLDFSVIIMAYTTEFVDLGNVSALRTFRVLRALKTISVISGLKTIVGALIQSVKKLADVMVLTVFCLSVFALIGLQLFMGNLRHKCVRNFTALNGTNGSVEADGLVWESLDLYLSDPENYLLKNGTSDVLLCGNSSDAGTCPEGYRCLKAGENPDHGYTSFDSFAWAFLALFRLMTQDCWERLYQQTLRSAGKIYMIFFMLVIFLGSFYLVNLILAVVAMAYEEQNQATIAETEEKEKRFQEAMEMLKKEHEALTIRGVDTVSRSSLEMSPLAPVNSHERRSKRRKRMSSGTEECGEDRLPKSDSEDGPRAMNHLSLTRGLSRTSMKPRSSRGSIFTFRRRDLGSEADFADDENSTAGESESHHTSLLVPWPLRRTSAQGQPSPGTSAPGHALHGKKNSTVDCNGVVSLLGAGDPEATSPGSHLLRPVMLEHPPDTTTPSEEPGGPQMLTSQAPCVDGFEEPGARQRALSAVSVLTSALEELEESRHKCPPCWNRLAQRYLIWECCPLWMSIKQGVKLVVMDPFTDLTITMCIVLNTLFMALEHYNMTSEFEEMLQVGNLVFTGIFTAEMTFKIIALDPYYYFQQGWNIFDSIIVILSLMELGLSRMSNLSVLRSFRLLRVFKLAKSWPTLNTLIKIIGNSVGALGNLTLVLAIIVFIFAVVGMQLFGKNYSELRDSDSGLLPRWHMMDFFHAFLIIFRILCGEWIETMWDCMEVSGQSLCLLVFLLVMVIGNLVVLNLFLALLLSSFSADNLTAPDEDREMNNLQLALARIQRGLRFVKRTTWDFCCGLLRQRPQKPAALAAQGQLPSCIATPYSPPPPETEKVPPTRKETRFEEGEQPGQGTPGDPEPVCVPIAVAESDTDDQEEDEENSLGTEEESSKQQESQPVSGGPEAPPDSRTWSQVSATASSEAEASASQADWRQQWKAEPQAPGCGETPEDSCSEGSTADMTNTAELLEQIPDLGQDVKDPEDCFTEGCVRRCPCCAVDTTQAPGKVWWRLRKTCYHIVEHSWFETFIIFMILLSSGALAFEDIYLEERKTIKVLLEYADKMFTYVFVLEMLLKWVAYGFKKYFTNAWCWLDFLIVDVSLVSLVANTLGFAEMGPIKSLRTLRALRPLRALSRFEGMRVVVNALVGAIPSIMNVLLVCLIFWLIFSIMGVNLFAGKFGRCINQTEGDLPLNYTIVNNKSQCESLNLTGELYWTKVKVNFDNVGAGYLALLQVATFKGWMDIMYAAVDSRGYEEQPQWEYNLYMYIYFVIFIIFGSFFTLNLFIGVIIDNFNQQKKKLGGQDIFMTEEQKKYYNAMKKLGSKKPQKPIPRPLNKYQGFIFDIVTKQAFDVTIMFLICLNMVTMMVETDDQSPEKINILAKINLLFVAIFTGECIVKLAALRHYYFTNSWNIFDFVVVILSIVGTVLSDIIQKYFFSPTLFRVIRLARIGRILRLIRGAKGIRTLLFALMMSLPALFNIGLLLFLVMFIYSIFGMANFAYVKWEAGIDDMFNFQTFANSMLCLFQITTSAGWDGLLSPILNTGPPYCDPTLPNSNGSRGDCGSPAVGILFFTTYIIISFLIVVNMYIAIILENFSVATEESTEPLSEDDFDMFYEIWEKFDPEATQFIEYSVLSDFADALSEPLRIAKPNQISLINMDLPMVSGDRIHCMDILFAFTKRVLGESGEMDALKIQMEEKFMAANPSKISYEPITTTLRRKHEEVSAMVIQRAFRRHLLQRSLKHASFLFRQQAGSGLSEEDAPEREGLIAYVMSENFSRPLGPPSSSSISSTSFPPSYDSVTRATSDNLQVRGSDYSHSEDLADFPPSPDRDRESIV

pKi (human Nav1.7 (hSCN9A)): 6.47
pIC50 (human Nav1.7 channels; bound holds for Nav1.7 and/or Nav1.3, not stated which, read-out: IC50 against Nav1.7 and/or Nav1.3): > 6.00
pIC50 (human Nav1.7 channels; read-out: activity against Nav1.7 (IC50)): 6.42
pKi (human Nav1.3 (hSCN3A)): 6.24
SMILES: Cc1cc(Cn2cc3c(NC(=O)C(C)(C)O)nccc3n2)cnc1OCC(F)(F)F [Example 2, 2-hydroxy-2-methyl-N-(2-((5-methyl-6-(2,2,2-trifluoroethoxy)pyridin-3-yl)methyl)-2H-pyrazolo[4,3-c]pyridin-4-yl)propanamide]
pIC50 (human Nav1.5 channels): < 4.52
